Source: patent US10940218B2, “Treatment of meningiomas using phenylbenzothiazole, stilbene, biphenylalkyne, or pyridine derivatives” (MAYO FOUNDATION FOR MEDICAL EDUCATION AND RESEARCH, priority 2012, dated 2021)
Entries after “also recorded” stand apart in the source; their conditions may differ.

What was measured:
[1] = test system: meningioma tissue sections; experiment: Fluorescent tissue staining of meningioma sections; format: binding, human; conditions: for location of staining within meningioma cells: tissue sections
Text: (§1) The Department of Pathology, Mayo Clinic Rochester Tumor Tissue Registry, contains tumor samples procured by autopsy and surgery. Meningiomas, brain metastases and other tumors were identified by searching CoPath, a Mayo Clinic electronic pathology database of tumors collected since 1982. Tumor type was confirmed by viewing H&E stained slides under a light microscope.
(§2) Fresh cut 5 μm thick sections were used. Each staining run included normal brain and Alzheimer diseased brain as controls. Fluorescent tissue staining and microscopy was performed similar to methods previously described at Ikonomovic M D, Klunk W E, Abrahamson E E, et al., “Post-mortem correlates of in vivo PiB-PET amyloid imaging in a typical case of Alzheimer's disease”, Brain: A Journal Of Neurology 2008; 131:1630-45. Meningioma and other brain tumor sections were stained with 100 nM CN-PiB, 100 nM of unlabeled PiB or with saline alone as a negative control. The staining protocol was as follows: deparaffinization and rehydration, 0.25% KMnO4 incubation, water wash, 1% K2S2O5/1% Oxalic Acid incubation, water wash, PBS wash, 6-CN-PiB/PiB/saline incubation, PBS wash, NaCl, K2HPO4, and KH2PO4 incubation, water wash, mount coverslip, and storage at 4° C. in the dark until imaged. Slides were imaged within five days of staining. Immunohistochemical staining of meningiomas for beta amyloid protein was performed using NCL-B-Amyloid mouse anti-human antibody per standard clinical protocol.
(§3) Tissue stain images were obtained on a Zeiss 510 confocal microscope with excitation at 405 nm, a 420-480 bandpass filter, and the laser set at 15% power.
(§4) Images were obtained with a C-Apochromat 40×/1.2 W lens.

[2] = test system: other intracranial tumors and brain tissue sections; experiment: Fluorescent tissue staining of other tumors and brain tissue; format: binding, human
Text: as §1, §2, §3, §4

meningiomas [3] = experiment: PiB PET/CT imaging of meningiomas in patients; format: in vivo, human
Text: (§5) An Alzheimer's imaging database of two hundred forty-one patients was reviewed. […] All patients had been imaged by at least one MRI, as well as by FDG-PET/CT and PET/CT using the compound of formula (V). MRI reports of all patients were reviewed for possible meningiomas and other tumors. […] The diagnostic confidence of the radiologists interpreting the studies varied slightly, depending on factors such as tumor location and previous imaging. […] Tumors smaller than 7 millimeters are generally considered too small to be evaluated by PET or PET/CT. This is an excepted limitation of PET or PET/CT as a modality. […] None of the meningiomas in the series would be classified as atypical or aggressive based on MRI or CT imaging. One presumed extracranial schwannoma was seen, showing mild uptake on FDG-PET/CT, but no uptake on PET/CT using the compound of formula (V).
(§6) The radiologic interpretations of MRI, CT and FDG PET/CT scans from a population of 834 people who participated in the population-based Mayo Clinic Study of Aging (MCSA) from March 2006 through September 2011 were reviewed for the presence of tumors or other brain lesions. (See, Kantarci K, Lowe V, Przybelski S A, et al., “Magnetic resonance spectroscopy, {beta}-amyloid load, and cognition in a population-based sample of cognitively normal older adults”, Neurology 2011; 77:951-8; and Roberts R O, Geda Y E, Knopman D S, et al., “The Mayo Clinic Study of Aging: design and sampling, participation, baseline measures and sample characteristics”, Neuroepidemiology 2008; 30:58-69.) Participants were randomly selected for recruitment in the MCSA from a population of older adult residents of Olmsted County, Minn., USA. Those with neurological, psychological or systemic illnesses were not excluded. Individuals with dementia, or those unable to be imaged for medical reasons were excluded. All patients were imaged with C11-PiB PET/CT, F18-FDG PET/CT and non-contrast MRI at least once as part of the study. Any additional patient imaging and clinical history was then reviewed.
(§7) Tumors found in any of the subjects were then categorized as possible meningiomas or non-meningiomas based on the reading of the reporting neuroradiologist. Possible meningiomas were further reviewed as a group. A more strict set of criteria were applied to select a subset of the possible meningiomas that were designated “high-likelihood meningiomas” for further analysis and were defined by (1) tumors that were confirmed to be enhancing on diagnostic MRI (obtained separately for clinical purposes) and (2) tumors that had greater than two years of follow-up imaging confirming no growth or slow growth (1-2 mm per year). When the lead diagnosis of the identified tumor was metastasis, the diagnosis was confirmed by biopsy or autopsy. All tumors smaller than 5 mm thick were excluded, given they fall below the generally accepted lower limits of PET/CT resolution.
(§8) PET imaging was performed as part of the Mayo Clinic Study of Aging as previously described. (See Kantarci K, Lowe V, Przybelski S A, et al., “Magnetic resonance spectroscopy, {beta}-amyloid load, and cognition in a population-based sample of cognitively normal older adults”, Neurology 2011; 77:951-8.) PiB PET/CT, then FDG PET/CT were performed on the same day. PET/CT imaging was performed on a 690XT or DRX PET/CT tomograph (GE Healthcare). The PET sinograms were reconstructed using a fully-3D OSEM algorithm into a 30 cm field of view; the pixel size was 1.2 mm and the slice thickness was 3.27 mm (DRX) or 1.96 mm (690XT). CT imaging was obtained immediately prior to PET acquisition and used for attenuation correction. Cerebral PiB retention, a marker of amyloid deposition, was measured as previously described. (See Kantarci K, Lowe V, Przybelski S A, et al. “Magnetic resonance spectroscopy, {beta}-amyloid load, and cognition in a population-based sample of cognitively normal older adults”, Neurology 2011; 77:951-8.) […]

non-meningioma tumors [4] = experiment: PiB PET/CT imaging of non-meningioma tumors and lesions in patients; format: in vivo, human
Text: as §5, §6, §7, §8

normal adjacent tissues = experiment: PiB PET/CT activity of normal adjacent tissues; format: in vivo, human
Text: as §6
(§9) PET imaging was performed as part of the Mayo Clinic Study of Aging as previously described. (See Kantarci K, Lowe V, Przybelski S A, et al., “Magnetic resonance spectroscopy, {beta}-amyloid load, and cognition in a population-based sample of cognitively normal older adults”, Neurology 2011; 77:951-8.) PiB PET/CT, then FDG PET/CT were performed on the same day. PET/CT imaging was performed on a 690XT or DRX PET/CT tomograph (GE Healthcare). The PET sinograms were reconstructed using a fully-3D OSEM algorithm into a 30 cm field of view; the pixel size was 1.2 mm and the slice thickness was 3.27 mm (DRX) or 1.96 mm (690XT). CT imaging was obtained immediately prior to PET acquisition and used for attenuation correction. Cerebral PiB retention, a marker of amyloid deposition, was measured as previously described. (See Kantarci K, Lowe V, Przybelski S A, et al. “Magnetic resonance spectroscopy, {beta}-amyloid load, and cognition in a population-based sample of cognitively normal older adults”, Neurology 2011; 77:951-8.)

meningiomas [5] = experiment: FDG PET/CT imaging of meningiomas; format: in vivo, human
Text: (§10) An Alzheimer's imaging database of two hundred forty-one patients was reviewed. […] MRI reports of all patients were reviewed for possible meningiomas and other tumors. […] Tumors smaller than 7 millimeters are generally considered too small to be evaluated by PET or PET/CT.
as §6, §9

non-meningioma tumors [6] = experiment: FDG PET/CT imaging of non-meningioma tumors; format: in vivo, human
Text: as §10, §6
PET imaging was performed as part of the Mayo Clinic Study of Aging as previously described. (See Kantarci K, Lowe V, Przybelski S A, et al., “Magnetic resonance spectroscopy, {beta}-amyloid load, and cognition in a population-based sample of cognitively normal older adults”, Neurology 2011; 77:951-8.) PiB PET/CT, then FDG PET/CT were performed on the same day. PET/CT imaging was performed on a 690XT or DRX PET/CT tomograph (GE Healthcare). […] Cerebral PiB retention, a marker of amyloid deposition, was measured as previously described. […]

[7] = 100 nM stain, 5 μm sections, fluorescent microscopy
[8] = 16 high-likelihood meningiomas in 15 patients, C11-PiB PET/CT
[9] = Example 1, presumed extracranial schwannoma

Compound: CNc1ccc(-c2nc3ccc(C#N)cc3s2)cc1 [Formula 6-CN-PiB]
- fluorescent staining of meningioma tissue [1, 7]: stained positively; also recorded: intense fluorescence
- fluorescent staining of meningioma tissue ([1]; 100 nM stain, 5 μm sections, fluorescent microscopy, listed as highly-fluorescent version of the compound of Formula (V)): accumulate
- staining brightness versus other intracranial tumors ([1]; all meningiomas (n=7) vs other intracranial tumors (n=6)): qualitatively brighter
- fluorescent staining of meningioma tissue ([1]; multiple WHO grade I transitional type meningiomas): stained positive
- location of staining within meningioma cells [1]: outside the nuclei, within the cytoplasm and/or cell membrane
- location of staining within meningioma cells ([1]; listed as highly-fluorescent version of the compound of Formula (V)): within the nucleus of the cells of the meningiomas
- fluorescent staining ([2]; amyloid laden cerebral cortex, Alzheimer's disease, beta-amyloid plaques (positive control)): very intense fluorescence
- fluorescent staining ([2]; lung cancer brain metastasis): scattered fluorescence; also recorded: staining in the nuclei of the cells
- fluorescent staining ([2]; normal brain gray matter): almost no fluorescence
- fluorescent staining ([2]; schwannoma, FIG. 6 Panel E): only trace fluorescence
- fluorescent staining ([2]; some other tumors): Moderate 6-CN-PiB binding

Compound: [11CH3]Nc1ccc(-c2nc3ccc(O)cc3s2)cc1 [PiB, [N-Methyl-^11C]2-(4′-methylaminophenyl)-6-hydroxybenzothiazole]
- SUVmax (meningiomas [3]; 2.0 cm thick meningioma, focused irradiation 1 month prior to PiB PET/CT): 3.6
- SUVmax range (meningiomas [3]; [8]): 1.4-3.6
- average SUVmax (by body weight) (meningiomas [3]; [8]): 2.2
- uptake on PET/CT (meningiomas [3]; Example 1, one of seven presumed meningiomas, small size (~4 mm thick)): some uptake
- uptake on PET/CT (meningiomas [3]; Example 1, six of seven presumed meningiomas, 241 patient database): intense uptake
- uptake on PET/CT (meningiomas [3]; Example 2, recurrent orbital meningioma and falx meningioma in one patient): avid uptake
- uptake on PET/CT (meningiomas [3]; Example 2, total of ten presumed meningiomas): show uptake
- repeat imaging result (meningiomas [3]; Example 3, one patient imaged two times, many months in between): the same positive results
- uptake on PET/CT (meningiomas [3]; Example 3, thirteen out of thirteen presumed meningiomas >5 mm within field of view): positive uptake
- uptake on PET/CT (meningiomas [3]; Example 3, three non-diagnostic presumed meningiomas): some positive uptake
- repeat imaging SUVmax of meningioma (meningiomas [3]; Example 4, two patients imaged with PiB PET/CT more than once): stable or increasing SUVmax
- activity at the meningioma on PET/CT (meningiomas [3]; FIG. 1, Patient #1, right tentorium cerebelli mass): intense activity
- activity at the meningioma on PET/CT (meningiomas [3]; FIG. 2, Patient #4, tuberculum sellae and planum sphenoidale mass): intense activity
- SUVmax (meningiomas [3]; FIG. 3, 2.6 cm thick meningioma of the right tentorium): 2.8
- SUVmax (meningiomas [3]; FIG. 4 meningioma, Panels A-C): 2.8
- SUVmax (meningiomas [3]; FIG. 4 meningioma, panels G-I): 3.6
- SUVmax (meningiomas [3]; FIG. 5 Panel A, sella/supracellar region meningioma): 1.7
- SUVmax (meningiomas [3]; FIG. 5 Panel C, internal auditory canal meningioma): 1.9
- SUVmax (meningiomas [3]; FIG. 5 Panel E, lateral ventricle meningioma): 2.1
- SUVmax (meningiomas [3]; FIG. 5 Panel G, post-surgical meningioma recurrence): 1.5
- PiB PET/CT result (meningiomas [3]; all 16 meningiomas identified by strict imaging criteria): PiB activity greater than normal adjacent tissues; also recorded: clearly diagnostically positive
- amount of harmful radiation to the patient (meningiomas [3]; injection and PET/CT imaging): within acceptable limits for diagnostic purposes
- uptake on PET/CT (non-meningioma tumors [4]; Example 1, other tumors): little to no uptake
- uptake on PET/CT (non-meningioma tumors [4]; [9]): no uptake
- uptake on PET/CT (non-meningioma tumors [4]; Example 3, 25 types of tumors and non-neoplastic lesions incl. schwannoma, hamartoma, ependymoma, pituitary adenoma): only background uptake or no uptake
- SUVmax (non-meningioma tumors [4]; FIG. 4 melanoma metastasis): 0.9
- SUVmax (non-meningioma tumors [4]; FIG. 4 small cell lung cancer metastasis): 1.1
- SUVmax (non-meningioma tumors [4]; FIG. 5 Panel B, pituitary macroadenoma): 0.9
- SUVmax (non-meningioma tumors [4]; FIG. 5 Panel D, schwannoma): 0.8
- SUVmax (non-meningioma tumors [4]; FIG. 5 Panel F, ependymoma): 0.4
- SUVmax (non-meningioma tumors [4]; FIG. 5 Panel H, postoperative changes/scarring): 0.6
- PiB PET/CT result (non-meningioma tumors [4]; all non-meningioma intracranial tumors (metastases, pituitary macroadenomas, schwannomas, ependymoma)): PiB activity equal or less than normal adjacent tissue; also recorded: negative
- SUVmax (non-meningioma tumors [4]; all non-meningioma intracranial tumors identified): ≤ 1.1
- SUVmax (non-meningioma tumors [4]; bony lesions (hemangiomas, fibrous dysplasia, hyperostosis frontalis, osteoma)): < 1.0
- SUVmax (non-meningioma tumors [4]; extra-cranial tumors (sinus polyps, mucus retention cysts, mucocele, Warthin's tumors, inverted papilloma)): < 1.2
- PiB PET/CT result (non-meningioma tumors [4]; intracranial metastases (melanoma, small cell lung cancer)): negative with low activity
- PiB activity (non-meningioma tumors [4]; non-tumorous lesions (strokes, arachnoid cysts, multiple sclerosis lesions)): only trace PiB activity
- SUVmax (non-meningioma tumors [4]; vascular lesions (aneurysms, telangiectasias, cavernomas, venous angiomas)): ≤ 1.2
- average SUVmax (normal adjacent tissues; nearby normal bone): 0.6
- average SUVmax (normal adjacent tissues; nearby normal grey matter): 1.1
- PiB activity (normal adjacent tissues; nearby normal white matter, FIG. 5): high level of nonspecific PiB activity
- average background SUVmax (normal adjacent tissues; surrounding cerebrospinal fluid): 0.2
- fluorescent staining of meningioma tissue [1, 7]: stained brightly positive; also recorded: unique staining pattern
- fluorescent staining of meningioma tissue ([1]; 100 nM stain, 5 μm sections, fluorescent microscopy, listed as Formula (V)): accumulate
- location of staining within meningioma cells [1]: within the nucleus of the cells of the meningiomas

Compound: Fluorodeoxyglucose [FDG]
- uptake on FDG-PET/CT (meningiomas [5]; Example 1, four meningiomas): no uptake
- uptake on FDG-PET/CT (meningiomas [5]; Example 1, two meningiomas): mild uptake
- FDG activity (meningiomas [5]; FIG. 3 meningioma): only trace FDG activity
- FDG PET activity (meningiomas [5]; FIG. 4 meningioma, panels G-I): increased FDG PET activity
- FDG activity (meningiomas [5]; seven of the 16 meningiomas): moderate to high FDG activity
- uptake on FDG-PET/CT (non-meningioma tumors [6]; [9]): mild uptake
- FDG PET/CT result (non-meningioma tumors [6]; FIG. 5 pituitary macroadenoma): positive
- FDG PET activity (non-meningioma tumors [6]; melanoma and small cell lung cancer metastases): increased FDG PET activity; also recorded: positive
